Results as given in patent US9258954B2, “Plant having enhanced resistance to environmental stress” (RIKEN, priority 2011, dated 2016).

Tested on: Arabidopsis thaliana L. wild strain (Col-0)
Settings: 10 mM aqueous acetic acid applied to soil in pot for 9 days; compared to plant without treatment and plant treated with 0.5 mM acetic acid; FIG. 19
Description: hda6 mutant strain (axe 1-5 or sil1) and a parent strain or wild strain thereof were grown in pots at 22° C. under the conditions of 16 hours in the light and 8 hours in the dark for 3 weeks. Thereafter, water supply was terminated and the cultivation was continued at 22° C. and a humidity of 40% under the conditions of 16 hours in the light and 8 hours in the dark for about 2 weeks. In this manner, drought stress was gently given to the strains. After water was supplied again, the strains were grown at 22° C. under the conditions of 16 hours in the light and 8 hours in the dark for 5 days. The number of plants which recovered the growth was counted to determine a survival rate. The experiment was repeated three times using 40 plants per strain per experiment to calculate an average and standard deviation for the survival rate.

With `CC(=O)O` [acetic acid] the “drought-stress resistance (survival after drought-stress resistance test)” value was “remarkably strong drought-stress resistance”.
